This is an account of results in patent publication US6441006B2, “Pharmaceutical compositions and methods for use” (Targacept, Inc., priority 1998, dated 2002).

Several values for one entry are separate records, joined by “and”; a condition that tells them apart may be missing. Equal values may be shown once.

For data set [1], the target named is T1, muscle-type nicotinic acetylcholine receptors (Homo sapiens, UniProt P02708+P07510+Q07001).
T1 construct: endogenous in cells; host or cells: TE671/RD (own knowledge of the cited US 5,597,919)
T1 sequence (P02708 21-457): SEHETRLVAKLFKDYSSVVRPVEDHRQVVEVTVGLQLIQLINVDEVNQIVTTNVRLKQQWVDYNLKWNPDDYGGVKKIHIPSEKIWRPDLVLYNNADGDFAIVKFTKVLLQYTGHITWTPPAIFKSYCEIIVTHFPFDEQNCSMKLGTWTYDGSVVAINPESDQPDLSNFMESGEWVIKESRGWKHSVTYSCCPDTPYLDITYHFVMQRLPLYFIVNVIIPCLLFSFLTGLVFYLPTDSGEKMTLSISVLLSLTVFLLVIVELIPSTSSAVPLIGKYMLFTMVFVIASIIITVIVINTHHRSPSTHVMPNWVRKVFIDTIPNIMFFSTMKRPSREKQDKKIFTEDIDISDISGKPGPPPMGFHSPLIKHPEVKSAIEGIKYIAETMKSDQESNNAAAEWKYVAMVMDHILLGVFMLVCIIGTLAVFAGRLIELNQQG
T1 sequence (P11230 24-501 partner): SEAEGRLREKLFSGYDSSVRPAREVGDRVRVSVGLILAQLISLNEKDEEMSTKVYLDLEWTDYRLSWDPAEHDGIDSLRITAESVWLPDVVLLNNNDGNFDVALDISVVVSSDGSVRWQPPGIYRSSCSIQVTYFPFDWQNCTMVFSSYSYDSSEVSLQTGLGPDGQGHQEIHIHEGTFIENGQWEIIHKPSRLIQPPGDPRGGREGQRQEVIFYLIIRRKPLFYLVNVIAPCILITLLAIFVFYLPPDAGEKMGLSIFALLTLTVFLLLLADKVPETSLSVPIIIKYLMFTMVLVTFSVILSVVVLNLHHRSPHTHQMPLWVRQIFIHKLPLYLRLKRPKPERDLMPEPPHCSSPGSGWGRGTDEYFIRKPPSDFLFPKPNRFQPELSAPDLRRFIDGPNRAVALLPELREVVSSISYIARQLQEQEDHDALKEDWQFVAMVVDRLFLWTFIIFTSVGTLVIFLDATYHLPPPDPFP
T1 sequence (Q07001 22-517): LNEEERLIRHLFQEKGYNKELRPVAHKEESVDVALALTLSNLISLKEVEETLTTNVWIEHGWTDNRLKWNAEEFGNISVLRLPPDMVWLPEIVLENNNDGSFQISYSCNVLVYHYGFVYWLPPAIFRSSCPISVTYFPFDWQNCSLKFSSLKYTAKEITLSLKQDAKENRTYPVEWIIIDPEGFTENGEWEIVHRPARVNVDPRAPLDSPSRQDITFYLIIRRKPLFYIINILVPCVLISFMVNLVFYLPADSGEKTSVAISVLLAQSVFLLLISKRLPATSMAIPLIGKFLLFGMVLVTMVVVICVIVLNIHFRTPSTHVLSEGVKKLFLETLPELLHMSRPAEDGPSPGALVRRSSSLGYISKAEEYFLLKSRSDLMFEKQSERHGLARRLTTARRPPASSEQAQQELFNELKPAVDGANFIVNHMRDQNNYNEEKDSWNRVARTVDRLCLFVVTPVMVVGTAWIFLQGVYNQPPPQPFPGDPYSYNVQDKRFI
T1 sequence (P07510 23-517): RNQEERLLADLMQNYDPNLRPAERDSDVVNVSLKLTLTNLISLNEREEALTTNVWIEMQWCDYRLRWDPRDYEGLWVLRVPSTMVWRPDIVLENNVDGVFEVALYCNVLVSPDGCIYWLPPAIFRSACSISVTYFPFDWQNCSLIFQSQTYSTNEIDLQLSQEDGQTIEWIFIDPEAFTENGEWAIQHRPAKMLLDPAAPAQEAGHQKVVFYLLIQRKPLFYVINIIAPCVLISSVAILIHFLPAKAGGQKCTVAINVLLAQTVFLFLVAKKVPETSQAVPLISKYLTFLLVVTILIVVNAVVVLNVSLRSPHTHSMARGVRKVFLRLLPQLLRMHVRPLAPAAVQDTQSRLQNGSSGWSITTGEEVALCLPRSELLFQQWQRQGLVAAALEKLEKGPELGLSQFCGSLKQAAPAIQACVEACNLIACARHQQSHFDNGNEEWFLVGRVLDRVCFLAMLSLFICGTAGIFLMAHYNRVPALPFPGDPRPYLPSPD
The data set is described as follows: Interaction with muscle receptors. It is filed as cell-based. The conditions noted are these: for effect at muscle sites: Emax, percentage of maximal activation induced by (S)-(-)-nicotine. Here is the method:
(§1) The determination of the interaction of the compounds with muscle receptors was carried out in accordance with the techniques described in U.S. Pat. No. 5,597,919 to Dull et al. The maximal activation for individual compounds (Emax) was determined as a percentage of the maximal activation induced by (S)-(−)-nicotine. Reported Emax values represent the amount released relative to (S)-(−)-nicotine on a percentage basis. […] Such preferable compounds have the capability to activate human CNS receptors without activating muscle-type nicotinic acetylcholine receptors. Thus, there is provided a therapeutic window for utilization in the treatment of CNS disorders. […] The compounds begin to cause muscle effects only when employed in amounts of many times those required to activate dopamine release.

Data set [2] concerns the target T2, CNS nicotinic receptors (Rattus norvegicus, UniProt P09483+P12390).
T2 construct: Ki
The data set is described as follows: Binding to relevant receptor sites. The following applies: calculated from IC50 values using the method of Cheng et al. The method, then: Binding of the compounds to relevant receptor sites was determined in accordance with the techniques described in U.S. Pat. No. 5,597,919 to Dull et al. Inhibition constants (Ki values), reported in nM, were calculated from the IC50 values using the method of Cheng et al., Biochem, Pharmacol. 22:3099 (1973).

Data set [3] relates to ganglia-type nicotinic acetylcholine receptors. The data set is described as follows: Interaction with ganglion receptors. The following applies: for effect at ganglia sites: Emax, percentage of maximal activation induced by (S)-(-)-nicotine. It is filed as cell-based. Here is the method:
as §1, with “ganglionic” for “muscle”, “ganglia-type” for “muscle-type”, “cause” for “cause muscle”, “effects at ganglia” for “effects”
The determination of the interaction of the compounds with ganglionic receptors was carried out in accordance with the techniques described in U.S. Pat. No. 5,597,919 to Dull et al. The maximal activation for individual compounds (Emax) was determined as a percentage of the maximal activation induced by (S)-(−)-nicotine. Reported Emax values represent the amount released relative to (S)-(−)-nicotine on a percentage basis.

Another data set relates to Rat brain synaptosomes. The data set is described as follows: Neurotransmitter release from brain synaptosomes. It is filed as biochemical. The following applies: in the presence of 10 µM of ligand; percentage of release obtained with 10 µM (S)-(-)-nicotine or 300 µM TMA. The method, then:
Neurotransmitter release was measured using techniques similar to those previously published (Bencherif M, et al. JPET 279: 1413-1421, 1996).
Rat brain synaptosomes were prepared as follows: Female Sprague Dawley rats (100-200 g) were killed by decapitation after anesthesia with 70% CO2. Brains are dissected, and hippocampus, striatum, and thalamus isolated, and homogenized in 0.32 M sucrose containing 5 mM HEPES pH 7.4 using a glass/glass homogenizer. The tissue was then centrifuged for 1000×g for 10 minutes and the pellet discarded. The supernatant was centrifuged at 12000×g for 20 minutes. The resultant pellet was re-suspended in perfusion buffer (128 mM NaCl, 1.2 mM KH2PO4, 2.4 mM KCl, 3.2 mM CaCl2, 1.2 mM MgSO4, 25 mM HEPES, 1 mM Ascorbic acid, 0.01 mM pargyline HCl and 10 mM glucose pH 7.4) and centrifuged for 15 minutes at 25000×g. The final pellet was resuspended in perfusion buffer and placed in a water bath (37° C.) for 10 minutes. Radiolabeled neurotransmitter is added (30 L^3H DA, 20 L^3H NE, 10 L^3H glutamate) to achieve a final concentration of 100 nM, vortexed and placed in a water bath for additional 10 minutes. Tissue-loaded filters is placed onto 11-mm diameter Gelman A/E filters on an open-air support. After a 10-minute wash period, fractions are collected to establish the basal release and agonist applied in the perfusion stream. Further fractions were collected after agonist application to re-establish the baseline. The perfusate was collected directly into scintillation vials and released radioactivity was quantified using conventional liquid scintillation techniques. Release of neurotransmitter was determined in the presence of […] of various ligands and was expressedas a percentage of release obtained with a concentration of 10 M (S)-(−)-nicotine or 300 MTMA resulting in maximal effects.

The target in data set [4] is T3, CNS nicotinic receptors.
T3 construct: Emax, rubidium release; other: relative to 300 uM tetramethylammonium ion
Kind of data set: Rubidium release. The data set is classed as biochemical. The method, then:
Rubidium release was measured using the techniques described in Bencherif et al., JPET, 279: 1413-1421 (1996). Reported EC50 values are expressed in nM, and Emax values represent the amount of rubidium ion released relative to 300 uM tetranmethylammonium ion, on a percentage basis.

In a further data set the test system is laboratory rats. Kind of data set: Step-through passive avoidance, scopolamine induced amnesia. The data set is classed as in vivo, rat. The conditions noted are these: 0.3 to 3 umol/kg subcutaneous, 0.5 umol/kg scopolamine. Here is the method: A Gemini Avoidance System (San Diego Instruments) were used to evaluate animals in a passive avoidance experiment. During the period of habituation, laboratory rats received a subcutaneous injection of saline. On the acquisition day, each rat received a subcutaneous injection of 0.5 umol/kg scopolamine (or saline in the case of the vehicle control group) 30 minutes prior to being placed in the chambers. Five minutes following scopolamine injection, (or 25 minutes before being placed in the chamber), each rat was administered a subcutaneous injection with one of four doses of the compound. Thirty minutes following the scopolamine or vehicle injection, each rat was placed in the brightly illuminated chamber, facing away from the sliding door. After 10 seconds, the door separating the chambers opened allowing access to the dark chamber. The time to enter the dark chamber was measured. Immediately upon entering the dark chamber, the rat received a mild foot shock (0.5 mAmp) for 2 seconds. Twenty four hours following training, each rat was placed in the light chamber facing away from the sliding door. […] Statistical differences in latencies (latency during acquisition and retention trials) were analyzed by Kruskal-Wallis one-way analysis of variance on ranks followed by the either of two-tailed Mann-Whitney U-test or Newman-Keuls analog test if values of p less than 0.05 were obtained. […]

A further data set deals with dopamine release. Kind of data set: Dopamine release. The data set is classed as biochemical. The method, then:
Dopamine release was measured using the techniques described in U.S. Pat. No. 5,597,919 to Dull et al. Release is expressed as a percentage of release obtained with a concentration of (S)-(−)-nicotine resulting in maximal effects. Reported EC50 values are expressed in nM, and Emax values represent the amount released relative to (S)-(−)-nicotine on a percentage basis.

T2 sequence (P09483 31-630): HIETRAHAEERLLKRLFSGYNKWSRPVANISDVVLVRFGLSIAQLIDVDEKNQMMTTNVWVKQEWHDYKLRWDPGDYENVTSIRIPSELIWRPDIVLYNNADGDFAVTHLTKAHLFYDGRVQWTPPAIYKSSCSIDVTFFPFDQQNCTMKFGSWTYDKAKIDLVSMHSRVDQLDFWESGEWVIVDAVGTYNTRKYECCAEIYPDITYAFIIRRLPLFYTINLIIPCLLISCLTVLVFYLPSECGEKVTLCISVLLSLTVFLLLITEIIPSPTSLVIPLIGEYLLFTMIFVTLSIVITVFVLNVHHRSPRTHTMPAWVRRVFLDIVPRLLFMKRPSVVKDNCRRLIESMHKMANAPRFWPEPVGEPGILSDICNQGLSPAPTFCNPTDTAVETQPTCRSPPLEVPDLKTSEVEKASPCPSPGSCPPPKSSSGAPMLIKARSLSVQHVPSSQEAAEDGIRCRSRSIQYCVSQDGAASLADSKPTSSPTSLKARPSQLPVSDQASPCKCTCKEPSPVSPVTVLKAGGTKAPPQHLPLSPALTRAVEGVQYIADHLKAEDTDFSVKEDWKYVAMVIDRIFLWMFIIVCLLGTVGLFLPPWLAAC
T2 sequence (P12390 25-500): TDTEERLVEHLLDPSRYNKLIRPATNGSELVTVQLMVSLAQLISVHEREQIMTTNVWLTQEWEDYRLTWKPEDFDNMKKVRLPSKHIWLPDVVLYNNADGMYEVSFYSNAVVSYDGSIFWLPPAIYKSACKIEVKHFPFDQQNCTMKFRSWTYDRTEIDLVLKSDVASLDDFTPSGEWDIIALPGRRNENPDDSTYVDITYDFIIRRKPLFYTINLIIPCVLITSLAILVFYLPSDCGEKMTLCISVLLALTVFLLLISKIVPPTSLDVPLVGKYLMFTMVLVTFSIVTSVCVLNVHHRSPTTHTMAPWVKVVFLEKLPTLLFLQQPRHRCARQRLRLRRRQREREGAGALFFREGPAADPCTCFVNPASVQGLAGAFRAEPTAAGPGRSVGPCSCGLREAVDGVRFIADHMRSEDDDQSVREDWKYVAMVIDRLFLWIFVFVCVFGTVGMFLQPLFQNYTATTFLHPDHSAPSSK

The Ki is a measure of affinity in units of concentration, obtained from inhibition or displacement. Take “Methyl(3-(5-methoxy-3-pyridyloxy)propyl)amine Hemigalactarate [Example 17]”: the “effect at muscle sites” value in data set [1] is listed as 10%. For the same molecule, the Ki at CNS nicotinic receptors [2] is 15 nM. Moreover, the “effect at ganglia sites” value in data set [3] amounted to 5%. For the same molecule, the neurotransmitter release in the data set on Rat brain synaptosomes is on record as 54%.

“Methyl(3-(5-(phenylmethoxy)(3-pyridyloxy))propyl)amine Hemigalactarate [Example 19]”: the “effect at muscle sites” value in data set [1] came to 1%. For the same molecule, on CNS nicotinic receptors [2], the Ki is 2 nM. Besides, the “effect at ganglia sites” value in data set [3] worked out at 3%. Besides, the neurotransmitter release with Rat brain synaptosomes is 38%.

Turning to “Dimethyl(3-(3-pyridyloxy)propyl)amine Hemigalactarate [Example 11]”, in data set [1], the “effect at muscle sites” value worked out at 8%. For the same molecule, on CNS nicotinic receptors [2], the Ki is 126 nM. Besides, the “effect at ganglia sites” value in data set [3] was 5%. The neurotransmitter release in the data set with Rat brain synaptosomes amounted to 32%.

In the case of “Cyclopropyl(3-(3-pyridyloxy)propyl)amine Hemigalactarate [Example 25]”, the “effect at muscle sites” value in data set [1] is 9%. Also, the Ki on CNS nicotinic receptors [2] is 165 nM. In data set [3], the “effect at ganglia sites” value came out at 10%. In the data set with Rat brain synaptosomes, the neurotransmitter release came to 51%.

Regarding “3-(5-Chloro-3-pyridyloxy)propylamine Hemigalactarate [Example 15]”, in data set [1], the “effect at muscle sites” value turned out to be 0%. Also, on CNS nicotinic receptors [2], the Ki is 46 nM. The “effect at ganglia sites” value in data set [3] was 4%. For the same molecule, in the data set on Rat brain synaptosomes, the neurotransmitter release is 110%.

In the case of “Ethyl(3-(3-pyridyloxy)propyl)amine Hemigalactarate [Example 22]”, the “effect at muscle sites” value in data set [1] came out at 13%. Besides, the Ki on CNS nicotinic receptors [2] was 66 nM. In addition, in data set [3], the “effect at ganglia sites” value is on record as 13%. The neurotransmitter release in the data set on Rat brain synaptosomes was determined as 57%.

On to “(3-(5-Chloro(3-pyridyloxy))propyl)methylamine Hemigalactarate [Example 16]”, for which the “effect at muscle sites” value in data set [1] came out at 16%. Moreover, the Ki on CNS nicotinic receptors [2] was 11 nM. Also, the “effect at ganglia sites” value in data set [3] was 7%. Also, in the data set with Rat brain synaptosomes, the neurotransmitter release was found to be 100%.

As a reminder, the Emax is the size of the effect at its maximum, as opposed to the concentration needed. One may read the EC50 as the concentration that produces a half-maximal response. Low readings indicate greater potency, high ones weaker potency. With “(3-(3-Pyridyloxy)propyl)methylamine Hemigalactarate [Example 5]”, the “Emax at muscle-type receptors” value in data set [1] (relative to (S)-(-)-nicotine) stood at 0%. For the same molecule, the Ki at CNS nicotinic receptors [2] is 13 nM. Also, in data set [3] (relative to (S)-(-)-nicotine), the “Emax at ganglionic-type receptors” value came to 93%. Also, the EC50 on CNS nicotinic receptors [4] came out at 960 nM; with dopamine release, 369 nM. In the data set with CNS nicotinic receptors [4] (relative to 300 uM tetramethylammonium ion), the “Emax, rubidium release” value was 83%. Moreover, the “reversal of scopolamine induced amnesia” value with laboratory rats is reported as “significant reversal of scopolamine induced amnesia”. In addition, in the data set on dopamine release (amount released relative to (S)-(-)-nicotine), the “Emax, dopamine release” value was determined as 96%.

As for “Methyl(1-methyl-3-(3-pyridyloxy)propyl)amine Hemigalactarate [Example 26]”, in data set [1], the “effect at muscle sites” value is 16%. The Ki on CNS nicotinic receptors [2] is 138 nM. Also, the “effect at ganglia sites” value in data set [3] is given as 20%. For the same molecule, in the data set on Rat brain synaptosomes, the neurotransmitter release is 49%.

On to “(3-(3-Aminophenoxy)propyl)methylamine Hemigalactarate [Example 30]”, for which, in data set [1], the “effect at muscle sites” value stood at 11%. For the same molecule, the Ki at CNS nicotinic receptors [2] was 64 nM. The “effect at ganglia sites” value in data set [3] was found to be 5%. Besides, the neurotransmitter release with Rat brain synaptosomes was 30% and 60%.

One may read the melting point as the temperature of the solid-liquid transition. In turn, `Cl.Cl.c1cncc(OC2CCNCC2)c1` [Example 35, 3-(4-Piperidinyloxy)pyridine Dihydrochloride] displayed a melting point of 71 to 73.5 °C. Moreover, the “effect at muscle sites” value in data set [1] is on record as 16%. Besides, the “effect at ganglia sites” value in data set [3] amounted to 9%.

Consider “Methyl(3-(3-nitrophenoxy)propyl)amine Hemigalactarate [Example 28]”, for which, in data set [1], the “effect at muscle sites” value was determined as 10%. For the same molecule, on CNS nicotinic receptors [2], the Ki was 392 nM. Also, in data set [3], the “effect at ganglia sites” value came out at 9%. In the data set on Rat brain synaptosomes, the neurotransmitter release was found to be 67%.
